From patent US8846873B2, “Antibodies directed to GPNMB and uses thereof” (Celldex Therapeutics, Inc., priority 2004, dated 2014)
Entries after “also recorded” stand apart in the source; their conditions may differ.

What was measured:
[1] = tested on: SK-MEL-2 melanoma xenografts; experiment: Human SK-MEL-2 melanoma xenograft in athymic mice; assay type: in vivo
Protocol: Test Animals: Five- to 6-week old athymic mice (CD-1 nu/nu females), used for human tumor xenografts, were obtained from Harlan Laboratories (Indianapolis, Ind.). Animals were housed in specific pathogen-free conditions, according to the guidelines of the Association for Assessment and Accreditation of Laboratory Animal Care International (AAALAC International). Test animals were provided pelleted food and water ad libitum and kept in a room with conditioned ventilation (HVAC), temperature (22°±2° C.), relative humidity (55%±15%), and photoperiod (12 hr). All studies were carried out with approved institutional animal care and use protocols.
Human Melanoma Xenograft Models. The tumor inhibitory activity of the CR011-MMAE immunoconjugate was measured in an anti-tumor xenograft model using athymic mice, according to published methods (see Geran et al., Cancer Chemother. Rep. 3:1-104 (1972)). […] When tumors became established (10-20 days), the animals were pair-matched into groups (n=6 mice/group), and treatment was administered by intravenous injection (tail vein).
The SK-MEL-2 human melanoma (ATCC #HTB-68) was derived from a metastatic site (skin of thigh) of a person with malignant melanoma, and the SK-MEL-5 human melanoma (ATCC #HTB-70) was derived from a metastatic site (axillary lymph node) of a person with malignant melanoma (see Fogh et al., J. Natl. Cancer Inst. 59: 221-226 (1977)). Both cell lines were obtained from the American Type Culture Collection.
The effects of treatment were monitored by repetitive tumor measurements across 2 diameters with Vernier calipers; tumor size (in mg) was calculated using a standard formula, (W^2×L)/2, assuming a specific gravity of 1.0. Tumor size and body weights were assessed twice weekly. Mice were examined daily, however, and moribund animals were humanely euthanized if clinical indications of excessive pain or distress were noted (i.e., prostration, hunched posture, paralysis/paresis, distended abdomen, ulcerations, abscesses, seizures, and/or hemorrhages). Animals with tumors exceeding 2,000 mg were removed from the study and euthanized humanely.
No apparent or statistically significant anti-tumor effects were observed. […] In preliminary studies, tumor regression was complete and was not followed by regrowth of the tumor despite lengthy observation periods (up to 200 days).

DEL (ALCL) = experiment: Clonogenic assay with 1.15.1-AE (methylcellulose); assay type: cell-based
Protocol: (§1) Lymphoma or leukemia cell lines were mixed with methylcellulose base media (R&D Systems, USA) and in various concentrations of unconjugated and Auristatin E-conjugated 1.15.1 antibody before plating onto 6-well tissue culture plates (Becton Dickinson, Franklin Lakes, N.J., USA). […] Plates were incubated at 37° C. and examined daily. On days 14-18, colonies on the plates were counted.

[2] = tested on: KG-1 (acute myelogenous leukemia); experiment: Clonogenic assay with 1.15.1-AE (methylcellulose); assay type: cell-based
Protocol: as §1

[3] = tested on: CCRF-CEM (acute T cell lymphoblastic leukemia); experiment: Clonogenic assay with 1.15.1-AE (methylcellulose); assay type: cell-based
Protocol: as §1

[4] = tested on: Jurkat (acute T-cell leukemia); experiment: Clonogenic assay with 1.15.1-AE (methylcellulose); assay type: cell-based
Protocol: as §1

HEK293 cells = experiment: Clonogenic assay, empty vector or GPNMB transfected cells; assay type: cell-based, human; conditions: 96 hours treatment
Protocol: HEK293 cells are transfected with empty vector (vector) or GPNMB-containing plasmid (GPNMB) as described in Materials and Methods. A. Cell lysates are prepared from the transfected HEK293 cells and the expression of GPNMB (upper panel) or actin (lower panel) is determined by immunoblotting. Lane 1: Empty vector transfectants. Lane 2: GPNMB transfectants. B. Flow cytometry analysis of GPNMB expression on empty vector or GPNMB transfected cells. C. […] After a clonogenic assay, the surviving fraction is normalized to the untreated control and expressed as a percentage of the control using GraphPad Prism graphing software. Each treatment is performed in triplicate. A representative graph from two independent experiments is shown.
(§2) Cells were plated in 96-well plates and allowed to recover overnight. […] The cells were then transferred into 6-well plates and allowed to form colonies. Colonies were stained with Giemsa stain (Sigma) and counted. The surviving cell fractions were calculated based upon the ratio of the treated sample and the untreated control. The results were expressed as a percentage of control using GraphPad Prism Version 4 software.

SK-Mel-2 cells [5] = experiment: Clonogenic assay after GPNMB siRNA transfection; assay type: cell-based, human
Protocol: SK-MeI-2 cells are transfected with 50 nM of control siRNA or siRNA targeting GPNMB. A. Cell lysates are prepared from the transfected SK-Mel-2 cells 2 and 4 days post-transfection and the expression of GPNMB (upper panel) or actin (lower panel) is determined by immunoblotting. Lane 1: Mock (oligofectamine) transfection. Lane 2: Control siRNA transfection. Lane 3: GPNMB siRNA transfection. B. Flow cytometry analysis of GPNMB expression 2 and 4 days after transfection. SK-Mel-2 cells are transfected with mock, control siRNA or GPNMB siRNA as indicted in the Materials and Methods. C. […] The surviving fraction is normalized to the untreated control and expressed as a percentage of control using GraphPad Prism graphing software. Each treatment is performed in triplicate. A representative experiment from two independent studies is shown.
as §2
The amount of GPNMB expression was reduced for at least 7 days after transfection.

TK-10 cells = experiment: Apoptosis analysis (Annexin V-FITC / propidium iodide); assay type: cell-based, human; conditions: TK-10, 48 hour
Protocol: (§3) Briefly, cells were pulsed at the indicated times with 30 μM of bromodeoxyuridine (BrdU, Sigma) for 30 min, harvested, fixed and permeabilized in methanol. Nascent DNA synthesis was detected by anti-bromodeoxyuridine-FITC (BD Biosciences, San Jose, Calif.) staining. Total DNA content was detected using propidium iodide (PI, Sigma). For apoptosis analysis, cells were treated as above and labeled with Annexin V-FITC followed by propidium iodide exclusion using the Annexin V-FITC Apoptosis Detection kit I (BD PharMingen, San Diego, Calif.) according to the manufacturer's protocols. Flow cytometry (as described in the previous Example) was used to assay both cell cycle and apoptosis studies.
(§4) To investigate this possibility, analysis of apoptosis using Annexin-V surface binding and loss of propidium iodide (PI) exclusion was performed.

SK-Mel-2 cells [6] = experiment: as above; assay type: cell-based, human; conditions: for % AnnV+/PI+ UR / % AnnV+/PI− LR / % AnnV−/PI+ UL: SK-Mel-2, 48 hour
Protocol: as §3, §4

CR011-vcMMAE: anti-GPNMB antibody 1.15.1 coupled to monomethylauristatin E via protease-sensitive valine-citrulline linker
complete regressors ([1]; 2 mg/kg cumulative dose, all dosing intervals): 13% | proportions of complete regressions (animals) ([1]; 8 mg/kg cumulative dose, 5 groups of 6 animals): 28/30 | complete regressions ([1]; 8 mg/kg cumulative dose, all dosing intervals): 93% | tumor response ([1]; CR011-ONC-1, CR011-vcMMAE 5 mg/kg/treatment i.v. q4d x4, components at doses identical to those in the immunoconjugate): Tumor growth inhibition and complete regression; also recorded: no discernible tumor was detected in all 6 of the test animals | abnormal treatment effects on gross examination ([1]; Study N-386): no abnormal treatment effects | time after treatment commenced to significant treatment effects ([1]; Study N-386, 20, 10, 5 or 2.5 mg/kg i.v. q4d x4, P≦0.014): 4 days | anti-tumor effect ([1]; Study N-386, i.v., CR011-vcMMAE 20, 10, 5 or 2.5 mg/kg q4d x4, vinblastine […] q4d x4): tumors rapidly diminished in size for the majority of the test animals | effects of treatment on body weight or weight gain ([1]; Study N-386, twice weekly body weight): no observable or statistically significant effects | complete regressions ([1]; cumulative dose of 32 mg/kg, all dosing intervals): 100% | schedule dependency of anti-tumor effects ([1]; dosing intervals 0, 1, 4, 8, 16 days): not schedule-dependent | re-growth of tumors that regressed completely ([1]; observation period >200 days): did not re-grow | Clonogenic Assay with 1.15.1-AE IC50 (DEL (ALCL)): No effect | Clonogenic Assay with 1.15.1-AE IC50 [2]: No growth | Clonogenic Assay with 1.15.1-AE IC50 [3]: No growth | Clonogenic Assay with 1.15.1-AE IC50 [4]: No effect | sensitivity to growth-inhibition, GPNMB-expressing vs control HEK293 cells (HEK293 cells): more sensitive | sensitivity to growth-inhibitory activity following siRNA-mediated GPNMB knockdown (SK-Mel-2 cells [5]): less sensitive | % AnnV+/PI+ UR (TK-10 cells; 100 ng/mL): 0.57% | % AnnV+/PI− LR (TK-10 cells; 100 ng/mL): 1.00% | % AnnV−/PI+ UL (TK-10 cells; 100 ng/mL): 0.71% | % AnnV+/PI+ UR (TK-10 cells; 1000 ng/mL): 0.83% | % AnnV+/PI− LR (TK-10 cells; 1000 ng/mL): 0.56% | % AnnV−/PI+ UL (TK-10 cells; 1000 ng/mL): 0.86% | increase in mono-stained (Annexin-V+/PI−) cells (SK-Mel-2 cells [6]; 1000 ng/mL, 48 hr): 11% | % AnnV+/PI+ UR (SK-Mel-2 cells [6]; 100 ng/mL): 0.40% | % AnnV+/PI− LR (SK-Mel-2 cells [6]; 100 ng/mL): 9.37% | % AnnV−/PI+ UL (SK-Mel-2 cells [6]; 100 ng/mL): 0.30% | % AnnV+/PI+ UR (SK-Mel-2 cells [6]; 1000 ng/mL): 2.02% | % AnnV+/PI− LR (SK-Mel-2 cells [6]; 1000 ng/mL): 13.83% | % AnnV−/PI+ UL (SK-Mel-2 cells [6]; 1000 ng/mL): 2.08%
